Laboratory results taken from PubChem BioAssay AID328 (DTP/NCI, 2004).
Values joined by “and” are separate entries in the source; they are usually repeats but may differ in a detail not shown here. Equal entries are not always repeated. Toxic doses and inconclusive results are not listed.

System: BDF1 mice, P388 leukemia ip, median survival T/C
Experiment: NCI In Vivo Anticancer Drug Screen. Data for tumor model P388 Leukemia (intraperitoneal) in B6D2F1 (BDF1) mice
Details: endpoint: median survival time, higher = longer survival
Summary of the method: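 Steps: implant the tumour, treat one group with compound and another with vehicle, record survival, then divide treated by control.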

[1] = dose: 100.0 mg/kg/injection, schedule: Q01DX009 (ip), vehicle: Klucel (hydroxypropylcellulose) (HPC)
[2] = dose: 200.0 mg/kg/injection, schedule: Q01DX009 (ip), vehicle: Klucel (hydroxypropylcellulose) (HPC)
[3] = dose: 50.0 mg/kg/injection, schedule: Q01DX009 (ip), vehicle: saline
[4] = dose: 100.0 mg/kg/injection, schedule: Q01DX009 (ip), vehicle: saline
[5] = dose: 200.0 mg/kg/injection, schedule: Q01DX009 (ip), vehicle: saline
[6] = dose: 400.0 mg/kg/injection, schedule: Q04DX003 (ip), vehicle: saline with Tween-80
[7] = dose: 400.0 mg/kg/injection, schedule: Q04DX003 (ip), vehicle: saline
[8] = dose: 100.0 mg/kg/injection, schedule: Q01DX009 (ip), vehicle: saline with Tween-80
[9] = dose: 100.0 mg/kg/injection, schedule: Q04DX003 (ip), vehicle: saline with Tween-80
[10] = dose: 200.0 mg/kg/injection, schedule: Q01DX009 (ip), vehicle: saline with Tween-80
[11] = dose: 200.0 mg/kg/injection, schedule: Q04DX003 (ip), vehicle: saline with Tween-80
[12] = dose: 50.0 mg/kg/injection, schedule: Q01DX009 (ip), vehicle: saline with Tween-80
[13] = dose: 50.0 mg/kg/injection, schedule: Q04DX003 (ip), vehicle: saline with Tween-80
[14] = dose: 25.0 mg/kg/injection, schedule: Q01DX009 (ip), vehicle: saline
[15] = dose: 50.0 mg/kg/injection, schedule: Q04DX003 (ip), vehicle: saline
[16] = dose: 100.0 mg/kg/injection, schedule: Q04DX003 (ip), vehicle: saline
[17] = dose: 200.0 mg/kg/injection, schedule: Q04DX003 (ip), vehicle: saline
[18] = dose: 100.0 mg/kg/injection, schedule: Q04DX003 (ip), vehicle: Klucel (hydroxypropylcellulose) (HPC)
[19] = dose: 12.5 mg/kg/injection, schedule: Q01DX009 (ip), vehicle: water
[20] = dose: 25.0 mg/kg/injection, schedule: Q01DX009 (ip), vehicle: water
[21] = dose: 50.0 mg/kg/injection, schedule: Q01DX009 (ip), vehicle: water

For `COC1C(OC(N)=O)C(O)C(Oc2ccc3c(O)c(NC(=O)c4ccc(O)c(CC=C(C)C)c4)c(=O)oc3c2C)OC1(C)C` (centres undefined), the T/C (dose: 50.0 mg/kg/injection, schedule: Q01DX009 (ip), vehicle: Klucel (hydroxypropylcellulose) (HPC)) was 121 % of control, the T/C [1] was 111 % of control and the T/C [2] was 121 % of control.

For `CC(C)OC(=O)C1(N)CCCC1`, the T/C [3] was 109 % of control, the T/C [4] was 109 % of control and the T/C [5] was 86 % of control. The T/C [6] was 113 % of control, the T/C [7] was 116 % of control and the T/C (dose: 600.0 mg/kg/injection, schedule: Q04DX003 (ip), vehicle: saline with Tween-80) was 86 % of control. The T/C (dose: 600.0 mg/kg/injection, schedule: Q04DX003 (ip), vehicle: saline) was 91 % of control.

`CCOC(=O)CN(CC)C(=O)NC12CC3CC(CC(C3)C1)C2` was tested, and the T/C [1] was 100 % of control, the T/C [2] was 103 % of control and the T/C (dose: 400.0 mg/kg/injection, schedule: Q01DX009 (ip), vehicle: Klucel (hydroxypropylcellulose) (HPC)) was 102 % of control.

With `COc1cc(C(C)O)cc(OC)c1OC` (centres undefined) the T/C [8] was 92 % of control, the T/C [9] was 95 % of control and the T/C [10] was 92 % of control. For the same molecule, the T/C [11] was 104 % of control and the T/C [6] was 95 % of control.

For `c1cc2c3c(c1)/C(=N\N=C1/CCN4CCCc5cccc1c54)CCN3CCC2`, the T/C [12] was 104 % of control, the T/C [13] was 90 % of control and the T/C [8] was 104 % of control. For the same molecule, the T/C [9] was 100 % of control, the T/C [10] was 104 % of control and the T/C [11] was 100 % of control.

In the case of `C=CCN1C(=O)C=CC1=O`, the T/C (dose: 0.75 mg/kg/injection, schedule: Q01DX009 (ip), vehicle: saline) is reported as 102 % of control and the T/C (dose: 3.0 mg/kg/injection, schedule: Q01DX009 (ip), vehicle: saline) is reported as 117 % of control.

For `O=C(CSc1cc(-c2ccc(Cl)cc2)s[s+]1)c1ccc(Cl)cc1`, the T/C (dose: 12.5 mg/kg/injection, schedule: Q01DX009 (ip), vehicle: saline) was 109 % of control, the T/C [14] was 89 % of control and the T/C [3] was 89 % of control. The T/C [15] was 97 % of control, the T/C [4] was 101 % of control and the T/C [16] was 90 % of control and 100 % of control and 105 % of control. For the same molecule, the T/C [5] was 107 % of control, the T/C [17] was 97 % of control and 111 % of control and the T/C (dose: 300.0 mg/kg/injection, schedule: Q04DX003 (ip), vehicle: saline) was 111 % of control. For the same molecule, the T/C [7] was 103 % of control.

In the case of `O=C(OC1COC(Br)C(OC(=O)c2ccccc2)C1OC(=O)c1ccccc1)c1ccccc1` (centres undefined), the T/C [18] is reported as 100 % of control, the T/C (dose: 200.0 mg/kg/injection, schedule: Q04DX003 (ip), vehicle: Klucel (hydroxypropylcellulose) (HPC)) is reported as 95 % of control and the T/C (dose: 400.0 mg/kg/injection, schedule: Q04DX003 (ip), vehicle: Klucel (hydroxypropylcellulose) (HPC)) is reported as 100 % of control.

With `CC1=CC(=O)[C@@H](O)[C@]2(C)[C@H]3[C@@]4(O)OC[C@]35[C@H]([C@@H](C)[C@H]4O)[C@@H](O)C(=O)O[C@@H]5C[C@@H]12` the T/C (dose: 1.0 mg/kg/injection, schedule: Q01DX010 (ip), vehicle: steriod suspending solution) was 150 % of control, the T/C (dose: 1.5 mg/kg/injection, schedule: Q01DX010 (ip), vehicle: acetone) was 100 % of control and the T/C (dose: 2.0 mg/kg/injection, schedule: Q01DX010 (ip), vehicle: steriod suspending solution) was 107 % of control. For the same molecule, the T/C (dose: 3.0 mg/kg/injection, schedule: Q01DX010 (ip), vehicle: acetone) was 103 % of control, the T/C (dose: 4.0 mg/kg/injection, schedule: Q01DX010 (ip), vehicle: steriod suspending solution) was 107 % of control and the T/C (dose: 6.0 mg/kg/injection, schedule: Q01DX010 (ip), vehicle: acetone) was 115 % of control. For the same molecule, the T/C (dose: 8.0 mg/kg/injection, schedule: Q01DX010 (ip), vehicle: steriod suspending solution) was 150 % of control and the T/C (dose: 12.0 mg/kg/injection, schedule: Q01DX010 (ip), vehicle: acetone) was 123 % of control.

`C=CC[N+](CC=C)(CC=C)CC[N+](CC=C)(CC=C)CC=C` was tested, and the T/C [19] was 102 % of control, the T/C (dose: 12.5 mg/kg/injection, schedule: Q04DX003 (ip), vehicle: saline with Tween-80) was 104 % of control and the T/C [20] was 105 % of control. The T/C (dose: 25.0 mg/kg/injection, schedule: Q04DX003 (ip), vehicle: saline with Tween-80) was 104 % of control, the T/C [21] was 115 % of control and the T/C [13] was 101 % of control.

`C[C@@H]1C[C@@]2(C)[C@@H](CC[C@@H]3[C@@H]2CC[C@]2(C)[C@@H](O)CC[C@@H]32)C[C@@H]1O` was tested, and the T/C (dose: 220.0 mg/kg/injection, schedule: Q01DX010 (sc), vehicle: steriod suspending solution) was 100 % of control and the T/C (dose: 440.0 mg/kg/injection, schedule: Q01DX010 (sc), vehicle: steriod suspending solution) was 115 % of control.

In the case of `CCOC(=O)CC(C)(C)NCc1ccccc1`, the T/C (dose: 25.0 mg/kg/injection, schedule: Q01DX009 (ip), vehicle: Klucel (hydroxypropylcellulose) (HPC)) is reported as 90 % of control, the T/C (dose: 25.0 mg/kg/injection, schedule: Q04DX003 (ip), vehicle: Klucel (hydroxypropylcellulose) (HPC)) is reported as 108 % of control and the T/C (dose: 50.0 mg/kg/injection, schedule: Q04DX003 (ip), vehicle: Klucel (hydroxypropylcellulose) (HPC)) is reported as 95 % of control. The T/C [1] was 95 % of control and the T/C [18] was 116 % of control.

With `C[n+]1ccc2ccccc2c1` the T/C [14] was 100 % of control, the T/C [3] was 100 % of control and the T/C [15] was 104 % of control. The T/C [4] was 104 % of control and the T/C [16] was 100 % of control.

For `Cc1c[se]c(=S)s1`, the T/C (dose: 25.0 mg/kg/injection, schedule: Q01DX009 (ip), vehicle: saline with Tween-80) was 101 % of control, the T/C [12] was 96 % of control and the T/C [8] was 98 % of control.

`COC1=C(O)C(C(O)CO)OC1=O` (centres undefined) was tested, and the T/C (dose: 6.25 mg/kg/injection, schedule: Q01DX009 (ip), vehicle: water) was 94 % of control, the T/C [19] was 112 % of control and the T/C [20] was 110 % of control. The T/C (dose: 25.0 mg/kg/injection, schedule: Q04DX003 (ip), vehicle: water) was 112 % of control, the T/C [21] was 100 % of control and the T/C (dose: 50.0 mg/kg/injection, schedule: Q04DX003 (ip), vehicle: water) was 97 % of control. For the same molecule, the T/C (dose: 100.0 mg/kg/injection, schedule: Q01DX009 (ip), vehicle: water) was 91 % of control, the T/C (dose: 100.0 mg/kg/injection, schedule: Q04DX003 (ip), vehicle: water) was 100 % of control and the T/C (dose: 200.0 mg/kg/injection, schedule: Q01DX009 (ip), vehicle: water) was 103 % of control. The T/C (dose: 200.0 mg/kg/injection, schedule: Q04DX003 (ip), vehicle: water) was 95 % of control, the T/C (dose: 400.0 mg/kg/injection, schedule: Q01DX009 (ip), vehicle: water) was 100 % of control and the T/C (dose: 400.0 mg/kg/injection, schedule: Q04DX003 (ip), vehicle: water) was 105 % of control.

For `CCC(c1ccc(OC)cc1)C(NCC(=O)NNC(=O)CNC(c1ccc(OC)cc1)C(CC)c1ccc(OC)cc1)c1ccc(OC)cc1` (centres undefined), the T/C (dose: 12.5 mg/kg/injection, schedule: Q04DX002 (ip), vehicle: saline with Tween-80) was 110 % of control, the T/C (dose: 25.0 mg/kg/injection, schedule: Q04DX002 (ip), vehicle: saline with Tween-80) was 88 % of control and the T/C (dose: 50.0 mg/kg/injection, schedule: Q04DX002 (ip), vehicle: saline with Tween-80) was 94 % of control.

In the case of `COc1cc([C@@H]2c3cc4c(c(O)c3C[C@H]3COC(=O)[C@@H]32)OCO4)cc(OC)c1O`, the T/C (dose: 0.12 mg/kg/injection, schedule: Q01DX010 (ip), vehicle: carboxymethylcellulose (CMC)) is reported as 105 % of control, the T/C (dose: 0.25 mg/kg/injection, schedule: Q01DX010 (ip), vehicle: carboxymethylcellulose (CMC)) is reported as 100 % of control and the T/C (dose: 0.5 mg/kg/injection, schedule: Q01DX001 (ip), vehicle: other) is reported as 121 % of control. The T/C (dose: 0.5 mg/kg/injection, schedule: Q01DX010 (ip), vehicle: other) was 118 % of control, the T/C (dose: 1.0 mg/kg/injection, schedule: Q01DX010 (ip), vehicle: carboxymethylcellulose (CMC)) was 100 % of control and 123 % of control and the T/C (dose: 30.0 micrograms/kg/injection, schedule: Q01DX010 (ip), vehicle: other) was 110 % of control. The T/C (dose: 60.0 micrograms/kg/injection, schedule: Q01DX010 (ip), vehicle: other) was 110 % of control.

In the case of `C[N+](C)(C)c1ncnc2c1ncn2C1CCCO1` (centres undefined), the T/C [3] is reported as 100 % of control, the T/C [4] is reported as 109 % of control and the T/C [16] is reported as 100 % of control. The T/C [17] was 100 % of control.
